Values after ≈ are worked out from the molar mass of the structure shown. Counter-ions that a name gives are not always drawn.
Legend:
[1] = biological target: T1, thromboxane synthetase from rabbit platelet microsomes (Oryctolagus cuniculus, UniProt G1TAZ9); experiment: inhibition of thromboxane synthetase (conversion of prostaglandin H2 into thromboxane B2); format: biochemical
T1 construct: thromboxane synthetase from rabbit platelet microsomes; from tissue; host or cells: rabbit platelet microsomes
T1 sequence (G1TAZ9 1-530): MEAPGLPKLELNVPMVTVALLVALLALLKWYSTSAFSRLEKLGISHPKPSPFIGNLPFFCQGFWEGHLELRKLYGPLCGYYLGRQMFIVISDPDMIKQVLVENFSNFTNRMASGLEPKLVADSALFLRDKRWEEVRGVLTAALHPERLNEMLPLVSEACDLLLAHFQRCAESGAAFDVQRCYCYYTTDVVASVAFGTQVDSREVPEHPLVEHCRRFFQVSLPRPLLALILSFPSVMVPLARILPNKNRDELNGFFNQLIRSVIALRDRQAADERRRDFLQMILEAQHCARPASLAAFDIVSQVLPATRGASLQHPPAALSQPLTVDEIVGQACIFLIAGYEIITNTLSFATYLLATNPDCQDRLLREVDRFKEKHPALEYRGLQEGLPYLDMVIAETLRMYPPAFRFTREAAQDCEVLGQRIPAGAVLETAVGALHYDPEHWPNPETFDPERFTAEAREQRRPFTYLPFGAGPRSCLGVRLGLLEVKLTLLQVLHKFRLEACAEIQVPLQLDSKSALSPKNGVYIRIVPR

[2] = test system: arachidonic acid-induced blood platelet aggregation in platelet-rich plasma of rats; experiment: inhibition of arachidonic acid-induced blood platelet aggregation in platelet-rich plasma; format: cell-based; details: Rattus norvegicus, read-out: concentration producing a 50% inhibition of arachidonic acid-induced blood platelet aggregation, in comparison with controls
[3] = test system: arachidonic acid-induced sudden deaths of rabbits; experiment: inhibitory effect on arachidonic acid-induced sudden deaths; format: in vivo; details: oral administration, 100 mg/kg animal body weight
acute toxicity test = details: mouse, in vivo; ICR-stain male mice (7 weeks old), intravenous administration
thromboxane synthetase [4] = details: reported in Prostaglandins, 13(4), 611(1977); cited from earlier work
thromboxane synthetase [5] = experiment: inhibitory action for thromboxane synthetase (prior art); format: biochemical; details: prior-art compound, comparison in words
From the text: However, since their inhibitory action for thromboxane synthetase is weak, these compounds are hardly applicable as practically effective medicines.
On the other hand, N-(6-methoxycarbonylhexyl)imidazole has already been synthesized by P. Matthias et al, and publicly known [Monatsch Chem., 108(5), 1059(1977)].

CCCCC(CCCn1ccnc1)C(=O)OCC (racemic) [1-[(4RS)-4-ethoxycarbonyloctyl]imidazole]
IC50 [1]: 90 nM

CC(CCCCCn1ccnc1)CC(=O)O.Cl (racemic) [1-[(6RS)-7-carboxy-6-methylheptyl]imidazole hydrochloride]
IC50 [1]: 130 nM
IC50 [2]: 0.53 µg/mL

CC(CCCCCCn1ccnc1)C(=O)O.Cl (racemic) [1-[(7RS)-7-carboxyoctyl]imidazole hydrochloride]
IC50 [2]: 0.17 µg/mL
inhibitory effect on arachidonic acid-induced sudden deaths [3]: inhibitory effect
LD50 (acute toxicity test): 540 mg/kg

CCOC(=O)C(C)CCCCCCn1ccnc1 (racemic) [1-[(7RS)-7-ethoxycarbonyloctyl]imidazole]
IC50 [1]: 1000 nM
IC50 [2]: 0.052 µg/mL (≈ 0.206 µM)

CC(C)(CCCCCCC(=O)O)n1ccnc1.Cl [1-(7-carboxy-1,1-dimethylheptyl)imidazole hydrochloride]
IC50 [1]: 71 nM
IC50 [2]: 0.18 µg/mL

Cl.O=C(O)CCCCC#CCn1ccnc1 [1-(7-carboxy-2-heptynyl)imidazole hydrochloride]
IC50 [2]: 0.21 µg/mL
inhibitory effect on arachidonic acid-induced sudden deaths [3]: inhibitory effect

Cl.O=C(O)C#CCCCCCn1ccnc1 [1-(7-carboxy-6-heptynyl)imidazole hydrochloride]
IC50 [2]: 4 µg/mL

CC(C)(CCCCCCn1ccnc1)C(=O)O.Cl [1-(7-carboxy-7-methyloctyl)imidazole hydrochloride]
IC50 [2]: 0.091 µg/mL
inhibitory effect on arachidonic acid-induced sudden deaths [3]: inhibitory effect
LD50 (acute toxicity test): 330 mg/kg

CCOC(=O)C(C)(C)CCCCCCn1ccnc1 [1-(7-ethoxycarbonyl-7-methyloctyl)imidazole]
IC50 [1]: 30 nM
IC50 [2]: 0.44 µg/mL (≈ 1.65 µM)

Cn1ccnc1 [1-methylimidazole]
inhibitory action for thromboxane synthetase (thromboxane synthetase [4]): weak

O=C(O)CCCC/C=C\Cn1ccnc1 [(Z)-1-(7-carboxy-2-heptenyl)imidazole hydrochloride]
IC50 [1]: 16 nM

O=C(O)/C=C\CCCCCn1ccnc1 [(Z)-1-(7-carboxy-6-heptenyl)imidazole hydrochloride]
IC50 [1]: 200 nM

COC(=O)CCCCCCn1ccnc1 [N-(6-methoxycarbonylhexyl)imidazole]
inhibitory effect on thromboxane synthetase compared with imidazole or 1-methylimidazole (thromboxane synthetase [5]): stronger inhibitory effect

c1c[nH]cn1 [imidazole]
inhibitory action for thromboxane synthetase (thromboxane synthetase [4]): weak
